# Data: patent US8987195B2 (priority 2012, dated 2015)
# Where two headings read alike, the source gives them in different places.
# Key:
# HCV genotype 1b replicon = experiment: HCV replicon assay, genotype 1b replicon EC50; type: cell-based, Hepatitis C virus; conditions: Hepatitis C virus, genotype 1b replicon, read-out: EC50 [gt-1b]
# Outline: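 Replicon cells (Neo^r, some luciferase:Neo^r fusion); G418 removed at plating; compound dilution series, 24-48 h. Readout: RNA by 32P-probe hybridization/protection or TaqMan, normalized to cyclophilin A RNA, or luciferase. EC50 vs DMSO control, 4-parameter fit.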
# [1] = biological target: HCV NS3/4A protease genotype 1b (Hepatitis C virus genotype 1b, UniProt P26663); experiment: HCV NS3/4A protease time-resolved fluorescence (TRF) assay, Ki against genotype 1b; type: biochemical; conditions: IC50 [gt-1b] (nM), NS3/4A genotype 1b, enzyme 0.2 nM
# Outline: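 Ki values come from IC50 fits corrected for substrate concentration and KM. The time-resolved fluorescence protease reaction used 25 nM peptide substrate, 2.5 h, room temperature, pH 7.5 HEPES buffer, after 30 min enzyme–inhibitor preincubation.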
# Chain of HCV NS3/4A protease genotype 1b (P26663 1027-1657): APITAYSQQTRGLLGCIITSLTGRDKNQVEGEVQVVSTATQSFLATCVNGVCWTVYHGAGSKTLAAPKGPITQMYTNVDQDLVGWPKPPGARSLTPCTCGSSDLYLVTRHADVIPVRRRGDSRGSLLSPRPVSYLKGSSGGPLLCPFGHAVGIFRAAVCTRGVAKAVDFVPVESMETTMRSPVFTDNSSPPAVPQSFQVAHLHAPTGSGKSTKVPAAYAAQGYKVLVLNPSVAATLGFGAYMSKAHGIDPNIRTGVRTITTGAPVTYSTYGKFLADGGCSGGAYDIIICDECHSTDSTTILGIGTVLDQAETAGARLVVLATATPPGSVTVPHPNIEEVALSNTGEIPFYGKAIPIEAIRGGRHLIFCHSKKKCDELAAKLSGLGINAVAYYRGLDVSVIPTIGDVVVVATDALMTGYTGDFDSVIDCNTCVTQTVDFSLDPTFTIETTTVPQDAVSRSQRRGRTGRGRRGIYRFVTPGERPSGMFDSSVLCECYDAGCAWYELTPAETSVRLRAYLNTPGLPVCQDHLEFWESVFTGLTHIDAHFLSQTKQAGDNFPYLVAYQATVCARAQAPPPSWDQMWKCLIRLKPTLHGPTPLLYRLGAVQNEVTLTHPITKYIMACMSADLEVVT
# Chain of HCV NS3/4A protease genotype 1b (P26663 1658-1711): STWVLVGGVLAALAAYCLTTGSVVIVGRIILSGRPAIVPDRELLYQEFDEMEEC
SMILES,EC50 (HCV genotype 1b replicon) [pM],IC50 [1] [nM],EC50 (HCV genotype 1b replicon; K+ salt) [pM],IC50 ([1]; K+ salt) [nM]
"COc1ccc2nc(C(F)(F)F)c3c(c2c1)CC[C@]1(C[C@H]2C(=O)N[C@]4(C(=O)NS(=O)(=O)C5(C)CC5)C[C@H]4/C=C\CCCCC[C@H](NC(=O)OC4CCCC4)C(=O)N2C1)O3 [Example 217, cyclopentyl [(2R,6S,12Z,13aS,14aR,16aS)-9′-methoxy-14a-{[(1-methylcyclopropyl)sulfonyl]carbamoyl}-5,16-dioxo-5′-(trifluoromethyl)-1,1′,2′,5,6,7,8,9,10,11,13a,14,14a,15,16,16a-hexadecahydrospiro[cyclopropa[e]pyrrolo[1,2-a][1,4]diazacyclopentadecine-2,3′-pyrano[2,3-c]quinolin]-6-yl]carbamate]",10400,0.024,–,–
"Cc1nc2ccc(F)cc2c2c1O[C@]1(CC2)C[C@H]2C(=O)N[C@]3(C(=O)NS(=O)(=O)C4(C)CC4)C[C@H]3/C=C\CCCCC[C@H](NC(=O)OCC(C)C)C(=O)N2C1 [Example 218, 2-methylpropyl [(2R,6S,12Z,13aS,14aR,16aS)-9′-fluoro-5′-methyl-14a-{[(1-methylcyclopropyl)sulfonyl]carbamoyl}-5,16-dioxo-1,1′,2′,5,6,7,8,9,10,11,13a,14,14a,15,16,16a-hexadecahydrospiro[cyclopropa[e]pyrrolo[1,2-a][1,4]diazacyclopentadecine-2,3′-pyrano[2,3-c]quinolin]-6-yl]carbamate]",2150,0.005,–,–
"Cc1nc2ccc(F)cc2c2c1O[C@]1(CC2)C[C@H]2C(=O)N[C@]3(C(=O)NS(=O)(=O)C4(C)CC4)C[C@H]3/C=C\CCCCC[C@H](NC(=O)OC3CCCC3)C(=O)N2C1 [Example 219, cyclopentyl [(2R,6S,12Z,13aS,14aR,16aS)-9′-fluoro-5′-methyl-14a-{[(1-methylcyclopropyl)sulfonyl]carbamoyl}-5,16-dioxo-1,1′,2′,5,6,7,8,9,10,11,13a,14,14a,15,16,16a-hexadecahydrospiro[cyclopropa[e]pyrrolo[1,2-a][1,4]diazacyclopentadecine-2,3′-pyrano[2,3-c]quinolin]-6-yl]carbamate]",1200,0.004,–,–
"Cc1nc2ccc(Cl)cc2c2c1O[C@]1(CC2)C[C@H]2C(=O)N[C@]3(C(=O)NS(=O)(=O)C4(C)CC4)C[C@H]3/C=C\CCCCC[C@H](NC(=O)OCC3CCC3)C(=O)N2C1 [Example 221, cyclobutylmethyl [(2R,6S,12Z,13aS,14aR,16aS)-9′-chloro-5′-methyl-14a-{[(1-methylcyclopropyl)sulfonyl]carbamoyl}-5,16-dioxo-1,1′,2′,5,6,7,8,9,10,11,13a,14,14a,15,16,16a-hexadecahydrospiro[cyclopropa[e]pyrrolo[1,2-a][1,4]diazacyclopentadecine-2,3′-pyrano[2,3-c]quinolin]-6-yl]carbamate]",11600,0.008,–,–
"Cc1nc2ccc(Cl)cc2c2c1O[C@]1(CC2)C[C@H]2C(=O)N[C@]3(C(=O)NS(=O)(=O)C4(C)CC4)C[C@H]3/C=C\CCCCC[C@H](NC(=O)OCC3CC3)C(=O)N2C1 [Example 222, cyclopropylmethyl [(2R,6S,12Z,13aS,14aR,16aS)-9′-chloro-5′-methyl-14a-{[(1-methylcyclopropyl)sulfonyl]carbamoyl}-5,16-dioxo-1,1′,2′,5,6,7,8,9,10,11,13a,14,14a,15,16,16a-hexadecahydrospiro[cyclopropa[e]pyrrolo[1,2-a][1,4]diazacyclopentadecine-2,3′-pyrano[2,3-c]quinolin]-6-yl]carbamate]",–,–,4780,0.009
"Cc1nc2cc(F)c(F)cc2c2c1O[C@]1(CC2)C[C@H]2C(=O)N[C@]3(C(=O)NS(=O)(=O)C4(C)CC4)C[C@H]3/C=C\CCCCC[C@H](NC(=O)OCC3(C)CC3)C(=O)N2C1 [Example 223, (1-methylcyclopropyl)methyl [(2R,6S,12Z,13aS,14aR,16aS)-8′,9′-difluoro-5′-methyl-14a-{[(1-methylcyclopropyl)sulfonyl]carbamoyl}-5,16-dioxo-1,1′,2′,5,6,7,8,9,10,11,13a,14,14a,15,16,16a-hexadecahydrospiro[cyclopropa[e]pyrrolo[1,2-a][1,4]diazacyclopentadecine-2,3′-pyrano[2,3-c]quinolin]-6-yl]carbamate]",11000,0.013,–,–
"Cc1nc2cc(F)c(F)cc2c2c1O[C@]1(CC2)C[C@H]2C(=O)N[C@]3(C(=O)NS(=O)(=O)C4(C)CC4)C[C@H]3/C=C\CCCCC[C@H](NC(=O)OCC3CC3)C(=O)N2C1 [Example 224, cyclopropylmethyl [(2R,6S,12Z,13aS,14aR,16aS)-8′,9′-difluoro-5′-methyl-14a-{[(1-methylcyclopropyl)sulfonyl]carbamoyl}-5,16-dioxo-1,1′,2′,5,6,7,8,9,10,11,13a,14,14a,15,16,16a-hexadecahydrospiro[cyclopropa[e]pyrrolo[1,2-a][1,4]diazacyclopentadecine-2,3′-pyrano[2,3-c]quinolin]-6-yl]carbamate]",6730,0.019,–,–
"Cc1nc2cc(F)c(F)cc2c2c1O[C@]1(CC2)C[C@H]2C(=O)N[C@]3(C(=O)NS(=O)(=O)C4(C)CC4)C[C@H]3/C=C\CCCCC[C@H](NC(=O)OCC3CCC3)C(=O)N2C1 [Example 225, cyclobutylmethyl [(2R,6S,12Z,13aS,14aR,16aS)-8′,9′-difluoro-5′-methyl-14a-{[(1-methylcyclopropyl)sulfonyl]carbamoyl}-5,16-dioxo-1,1′,2′,5,6,7,8,9,10,11,13a,14,14a,15,16,16a-hexadecahydrospiro[cyclopropa[e]pyrrolo[1,2-a][1,4]diazacyclopentadecine-2,3′-pyrano[2,3-c]quinolin]-6-yl]carbamate]",12500,0.031,–,–
"Cc1nc2ccc(OC(F)(F)F)cc2c2c1O[C@]1(CC2)C[C@H]2C(=O)N[C@]3(C(=O)NS(=O)(=O)C4(C)CC4)C[C@H]3/C=C\CCCCC[C@H](NC(=O)OC(C)(C)CCS(C)(=O)=O)C(=O)N2C1 [Example 226, 2-methyl-4-(methylsulfonyl)butan-2-yl [(2R,6S,12Z,13aS,14aR,16aS)-5′-methyl-14a-{[(1-methylcyclopropyl)sulfonyl]carbamoyl}-5,16-dioxo-9′-(trifluoromethoxy)-1,1′,2′,5,6,7,8,9,10,11,13a,14,14a,15,16,16a-hexadecahydrospiro[cyclopropa[e]pyrrolo[1,2-a][1,4]diazacyclopentadecine-2,3′-pyrano[2,3-c]quinolin]-6-yl]carbamate]",–,–,18000,0.021
"Cc1nc2ccc(OC(F)(F)F)cc2c2c1O[C@@]1(C[C@H]3C(=O)N[C@]4(C(=O)NS(=O)(=O)C5(C)CC5)C[C@H]4/C=C\CCCCC[C@H](NC(=O)OC4CCCC4)C(=O)N3C1)CC2(F)F [Example 227, cyclopentyl [(2S,6S,12Z,13aS,14aR,16aS)-1′,1′-difluoro-5′-methyl-14a-{[(1-methylcyclopropyl)sulfonyl]carbamoyl}-5,16-dioxo-9′-(trifluoromethoxy)-1,1′,2′,5,6,7,8,9,10,11,13a,14,14a,15,16,16a-hexadecahydrospiro[cyclopropa[e]pyrrolo[1,2-a][1,4]diazacyclopentadecine-2,3′-pyrano[2,3-c]quinolin]-6-yl]carbamate]",–,–,28400,0.043
"Cc1nc2ccccc2c2c1O[C@]1(CC2)C[C@H]2C(=O)N[C@]3(C(=O)NS(=O)(=O)C4(C)CC4)C[C@H]3/C=C\CCCCC[C@H](NC(=O)N(C)C)C(=O)N2C1 [Example 228, (2R,6S,12Z,13aS,14aR,16aS)-6-[(dimethylcarbamoyl)amino]-5′-methyl-N-[(1-methylcyclopropyl)sulfonyl]-5,16-dioxo-1,1′,2′,6,7,8,9,10,11,13a,14,15,16,16a-tetradecahydrospiro[cyclopropa[e]pyrrolo[1,2-a][1,4]diazacyclopentadecine-2,3′-pyrano[2,3-c]quinoline]-14a(5H)-carboxamide]",6630,0.025,–,–
"Cc1nc2ccccc2c2c1O[C@]1(CC2)C[C@H]2C(=O)N[C@]3(C(=O)NS(=O)(=O)C4(C)CC4)C[C@H]3/C=C\CCCCC[C@H](NS(C)(=O)=O)C(=O)N2C1 [Example 229, (2R,6S,12Z,13aS,14aR,16aS)-5′-methyl-N-[(1-methylcyclopropyl)sulfonyl]-6-[(methylsulfonyl)amino]-5,16-dioxo-1,1′,2′,6,7,8,9,10,11,13a,14,15,16,16a-tetradecahydrospiro[cyclopropa[e]pyrrolo[1,2-a][1,4]diazacyclopentadecine-2,3′-pyrano[2,3-c]quinoline]-14a(5H)-carboxamide]",14600,0.122,–,–
"Cc1nc2ccccc2c2c1O[C@]1(CC2)C[C@H]2C(=O)N[C@]3(C(=O)NS(=O)(=O)C4(C)CC4)C[C@H]3/C=C\CCCCC[C@H](NS(=O)(=O)C3CC3)C(=O)N2C1 [Example 230, (2R,6S,12Z,13aS,14aR,16aS)-6-[(cyclopropylsulfonyl)amino]-5′-methyl-N-[(1-methylcyclopropyl)sulfonyl]-5,16-dioxo-1,1′,2′,6,7,8,9,10,11,13a,14,15,16,16a-tetradecahydrospiro[cyclopropa[e]pyrrolo[1,2-a][1,4]diazacyclopentadecine-2,3′-pyrano[2,3-c]quinoline]-14a(5H)-carboxamide]",57800,0.265,–,–
